From patent US20010025045A1, “Substituted isoquinoline derivatives and their use as anticonvulsants” (SmithKline Beecham p.l.c., priority 1997, published 2001)

System: maximal (tonic hindlimb extension) electroshock seizures in male rats (Sprague Dawley)
Test: Rat MEST (maximal electroshock seizure threshold) test
Format: in vivo
Conditions: 2 mg/kg p.o., suspension in methyl cellulose, one hour post dosing, statistically significant
Protocol: The maximal electroshock seizure (MEST) threshold test in rodents is particularly sensitive for detecting potential anticonvulsant properties ^1. In this model, anticonvulsant agents elevate the threshold to electrically-induced seizures whilst proconvulsants lower the seizure threshold.
The threshold for maximal (tonic hindlimb extension) electroshock seizures in male rats (Sprague Dawley, 80-150 g, 6 weeks old) was determined by a Hugo Sachs Electronik stimulator which delivered a constant current (0.3 sec duration; from 1-300mA in steps of 5-20mA). The procedure is similar to that outlined above for mouse and full details are as published by Upton et al.^4
The percentage increase or decrease in CC50 for each group compared to the control is calculated.
Drugs are suspended in 1% methyl cellulose.

Compound | increase in seizure threshold [%]
COc1cc(C(C)C)c(C#N)cc1C(=O)Nc1cccc2c1CCN(C)C2.Cl [Example 10, N-(2-Methyl-1,2,3,4-tetrahydroisoquinolin-5-yl)-5-cyano-2-methoxy-4-iso-propylbenzamide, hydrochloride] | 152
CCOc1cc(C(C)C)c(C(F)(F)F)cc1C(=O)Nc1cccc2c1CCN(C)C2 [Example 11, N-(2-Methyl-1,2,3,4-tetrahydroisoquinolin-5-yl)-2-ethoxy-4-iso-propyl-5-trifluoromethylbenzamide] | 92
CCOc1cc(C(C)C)c(C#N)cc1C(=O)Nc1cccc2c1CCN(C)C2.Cl [Example 16, N-(2-Methyl-1,2,3,4-tetrahydroisoquinolin-5-yl)-5-cyano-2-ethoxy-4-iso-propylbenzamide, hydrochloride] | 336
CCOc1cc(OC)c(C(=O)Nc2cccc3c2CCN(C)C3)cc1Br [Example 17, N-(2-Methyl-1,2,3,4-tetrahydroisoquinolin-5-yl)-5-bromo-4-ethoxy-2-methoxybenzamide] | 403
COc1cc(OC)c(C(=O)Nc2cccc3c2CCN(C)C3)cc1C#N.Cl [Example 23, N-(2-Methyl-1,2,3,4-tetrahydroisoquinolin-5-yl)-2,4-dimethoxy-5-cyanobenzamide, hydrochloride] | 107
